# Laboratory results: US7378121B2, “Use of ferulic acid amides as flavor compounds” (Symrise GmbH & Co. KG, priority 2001, dated 2008)
# How the values were obtained:
# [1] = with frequent use and overdose; cited from earlier work
# mouse = details: cited from earlier work
# [2] = Tasting of the pungent compounds in 11% strength by weight sugar solution (Example 1); format: in vivo, human; details: approx. 5 ml swallowed, 8 testers
# Method: The substance, under test, was dissolved in ethanol and the ethanolic solution was then diluted with an 11% strength by weight sugar solution (final concentration: c). For tasting, in each case approximately 5 ml of the sugar solution was swallowed. If the threshold value of the substance was known, a value just above the threshold value is chosen for the tasting. A group of 8 testers tasted the solutions.
# [3] = in vivo; cited from earlier work
# [4] = Test of the combined action of grains of paradise extract and trans-feruloylmethoxytyramine in model system A; format: in vivo, human; details: 0.02% by weight solution (10% by weight EtOH) in model system A
# Method: (§1) The grains of paradise extract used below was prepared by stirring 800 g of ground grains of paradise with 4 kg of ethanol (96% by volume). After filtration the filtrate was concentrated to 40 g and treated with steam at 100° C. and 300 mbar. The extract was made up to 80 g with ethanol (96% by volume).
# (§2) As commercially conventional model systems, a liqueur base of 10% by volume and a liqueur base of 5.5% by volume were selected.
# Then, to model system A the solution of a grains of paradise extract (10% by weight in ethanol) was added at concentrations of 0.1 to 0.2% by weight, based on the total weight of the model system, and a solution of trans-feruloylmethoxytyramine (10% by weight in ethanol) at a concentration of 0.01 to 0.02% by weight, based on the total weight of the model system. Using a taste-testing group of 8 people, again the effect of grains of paradise extract addition and of trans-feruloylmethoxytyramine addition on the sensory profile were tested. In addition, the combined action was tested.
# [5] = Sensory assessment of the pungency of liqueur base model system A (10% by volume) with additions; format: in vivo, human; details: 1% by weight of solution (1% by weight in EtOH) added to model system A
# Method: as §1, §2
# To the model system A were then added the solution of the extract of grains of paradise (1% by weight in ethanol (EtOH)) at concentrations of 1 to 3% by weight, based on the total weight of the model system, and a solution of trans-feruloylmethoxytyramine (1% by weight in ethanol) at a concentration of 1% by weight, based on the total weight of the model system. Using a taste-testing group of 8 people, the effect of grains of paradise extract addition and trans-feruloylmethoxytyramine addition on the sensory profile were then tested. The sensory assessment was made on a scale of 1 (weak) to 5 (strong).
# [6] = Gelled fruits having elderberry flavor, flavor intensifier test; format: in vivo, human; details: elderberry flavor 0.07% by weight
# Source text: As commercially conventional model system, flavor combinations in gelled fruits having elderberry flavor were used: […]
compound,measurement,setting,value
"COc1cc(CNC(=O)CCCC/C=C/C(C)C)ccc1O [capsaicin, N-(4-hydroxy-3-methoxybenzyl)-8-methyl-(6E)-nonenamide]",Chronic damage,[1],"chronic gastritis, kidney damage and liver damage"
same,LD50 (mouse oral),mouse,47 mg
"COc1cc(/C=C\C(=O)NCCc2ccc(O)c(OC)c2)ccc1O [cis-feruloylmethoxytyramine, N-[2-(4-hydroxy-3-methoxyphenyl)ethyl]-3-(4-hydroxy-3-methoxyphenyl)-(2Z)-propenamide]",Sensory profile,[2]; c=1 ppm in 11% sugar solution,pungency builds up slowly
"COc1cc(/C=C/C(=O)NCc2ccc(O)c(OC)c2)ccc1O [ferulic acid N-vanillylamide, N-(4-hydroxy-3-methoxybenzyl)-4-hydroxy-3-methoxy-(2E)-propenamide]",Pungency as described in the literature,[3],not described as pungent
"O=C(/C=C/c1ccc(O)c(O)c1)NCCc1ccc(O)cc1 [trans-caffeoyltyramine, N-[2-(4-hydroxyphenyl)ethyl]-3-(3,4-dihydroxyphenyl)-(2E)-propenamide]",Sensory profile,[2]; c=1 ppm in 11% sugar solution,"pungency occurs after a delay, anaesthetizing pungency"
"COc1cc(/C=C/C(=O)NCCc2ccc(O)c(OC)c2)ccc1O [trans-feruloylmethoxytyramine, N-[2-(4-hydroxy-3-methoxyphenyl)ethyl]-3-(4-hydroxy-3-methoxyphenyl)-(2E)-propenamide]",Comments (sensory),[4],"Mild, pungency very similar"
same,Sensory description,[5],"Sweet, vanilla, fruity, less"
same,"Pungency (median), Scale 1-5","[5]; scale 1 (weak) to 5 (strong), 8 people",2
same,Sensory profile,[2]; c=10 ppm in 11% sugar solution,"body, sweet, heat develops after delay, long-lasting, especially in the pharyngeal cavity (in the case of 4 participants), adherent, slightly anaesthetizing action"
same,Sensory profile,[2]; c=20 ppm in 11% sugar solution,"sweet, aniseed-like, benzaldehyde, heat develops after a delay (in the case of 8 participants), long-lasting, especially in the pharyngeal cavity, pleasant pepper pungency"
same,Sensory description,[6]; 0.015% by weight of solution (1% by weight in ethanol),Effect only slightly perceptible
same,Sensory description,[6]; 0.03% by weight of solution (1% by weight in ethanol),"Effect below threshold, but pleasant"
same,Sensory description,[6]; 0.045% by weight of solution (1% by weight in ethanol),Flavor fresh and rounded
"COc1ccc(/C=C/C(=O)NCCc2ccc(OC)c(OC)c2)cc1OC [trans-rubenamine, N-[2-(3,4-dimethoxyphenyl)ethyl]-3-(3,4-dimethoxyphenyl)-(2E)-propenamide]",Sensory profile,[2]; c=1 ppm in 11% sugar solution,"pleasant mild pungency, builds up slowly"
